Test results as given in PubChem BioAssay (NCI).
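The concentration for 50% growth inhibition is given as GI50. TGI is the concentration that stops growth completely.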

How the values were obtained:
Assay in all cases: NCI anticancer screen, dose series, 384-well format
[1] = test system: 786-0 renal
[2] = test system: A498 renal
[3] = test system: A549 NSCLC
[4] = test system: ACHN renal
[5] = test system: BT-549 breast
[6] = test system: CAKI-1 renal
[7] = test system: CCRF-CEM leukemia
[8] = test system: COLO 205 colon
[9] = test system: DU-145 prostate
[10] = test system: EKVX NSCLC
[11] = test system: HCC-2998 colon
[12] = test system: HCT-116 colon
[13] = test system: HCT-15 colon
[14] = test system: HL-60(TB) leukemia
[15] = test system: HOP-62 NSCLC
[16] = test system: HOP-92 NSCLC
[17] = test system: HS 578T breast
[18] = test system: HT29 colon
[19] = test system: IGROV1 ovarian
[20] = test system: K-562 leukemia
[21] = test system: KM12 colon
[22] = test system: LOX IMVI melanoma
[23] = test system: M14 melanoma
[24] = test system: MALME-3M melanoma
[25] = test system: MCF7 breast
[26] = test system: MDA-MB-231 breast
[27] = test system: MDA-MB-435 melanoma
[28] = test system: MDA-MB-468 breast
[29] = test system: MOLT-4 leukemia
[30] = test system: NCI-H226 lung
[31] = test system: NCI-H23 lung
[32] = test system: NCI-H322M lung
[33] = test system: NCI-H460 NSCLC
[34] = test system: NCI-H522 lung
[35] = test system: NCI/ADR-RES ovarian
[36] = test system: OVCAR-3 ovarian
[37] = test system: OVCAR-4 ovarian
[38] = test system: OVCAR-5 ovarian
[39] = test system: OVCAR-8 ovarian
[40] = test system: PC-3 prostate
[41] = test system: RPMI-8226 leukemia
[42] = test system: RXF 393 renal
[43] = test system: SF-268 CNS
[44] = test system: SF-295 CNS
[45] = test system: SF-539 CNS
[46] = test system: SK-MEL-28 melanoma
[47] = test system: SK-MEL-5 melanoma
[48] = test system: SK-OV-3 ovarian
[49] = test system: SN12C renal
[50] = test system: SNB-19 CNS
[51] = test system: SNB-75 CNS
[52] = test system: SW-620 colon
[53] = test system: T-47D breast
[54] = test system: TK-10 renal
[55] = test system: U251 glioblastoma
[56] = test system: UACC-257 melanoma
[57] = test system: UACC-62 melanoma
[58] = test system: UO-31 renal

NS(=O)(=O)OC[C@H]1C[C@@H](Nc2ccnc3cc(-c4cccc(SC(F)(F)F)c4)nn23)[C@H](O)[C@@H]1O
GI50 [1]: 18.7 nM
TGI [1]: 36.1 nM
GI50 [2]: < 10 nM
TGI [2]: 21.2 nM
GI50 [3]: 59.6 nM
TGI [3]: 191 nM
GI50 [4]: 59 nM
TGI [4]: 190 nM
GI50 [5]: < 10 nM
TGI [5]: 16.1 nM
GI50 [6]: 18.9 nM
TGI [6]: 36 nM
GI50 [7]: < 10 nM
TGI [7]: < 10 nM
GI50 [8]: < 10 nM
TGI [8]: 14.9 nM
GI50 [9]: < 10 nM
TGI [9]: 44.9 nM
GI50 [10]: 14 nM
TGI [10]: 28 nM
GI50 [11]: 13.1 nM
TGI [11]: 27.4 nM
GI50 [12]: < 10 nM
TGI [12]: 11.3 nM
GI50 [13]: 33.2 nM
TGI [13]: 117 nM
GI50 [14]: < 10 nM
TGI [14]: < 10 nM
GI50 [15]: < 10 nM
TGI [15]: 11.4 nM
GI50 [16]: 12.2 nM
TGI [16]: 25.4 nM
GI50 [17]: 14.2 nM
TGI [17]: 28.4 nM
GI50 [18]: 94.7 nM
TGI [18]: 222 nM
GI50 [19]: 15.1 nM
TGI [19]: 30.1 nM
GI50 [20]: < 10 nM
TGI [20]: < 10 nM
GI50 [21]: 25.5 nM
TGI [21]: 59.7 nM
GI50 [22]: < 10 nM
TGI [22]: < 10 nM
GI50 [23]: 15.8 nM
TGI [23]: 30.7 nM
GI50 [24]: < 10 nM
TGI [24]: 21.5 nM
GI50 [25]: 11.5 nM
TGI [25]: 31.2 nM
GI50 [26]: < 10 nM
TGI [26]: 23.4 nM
GI50 [27]: 17.4 nM
TGI [27]: 32.7 nM
GI50 [28]: < 10 nM
TGI [28]: < 10 nM
GI50 [29]: 12.9 nM
TGI [29]: 26 nM
GI50 [30]: < 10 nM
TGI [30]: < 10 nM
GI50 [31]: 19.3 nM
TGI [31]: 51.3 nM
GI50 [32]: 11.3 nM
TGI [32]: 24.2 nM
GI50 [33]: 147 nM
TGI [33]: 286 nM
GI50 [34]: < 10 nM
TGI [34]: < 10 nM
GI50 [35]: 129 nM
TGI [35]: 260 nM
GI50 [36]: < 10 nM
TGI [36]: < 10 nM
GI50 [37]: 15.9 nM
TGI [37]: 29.9 nM
GI50 [38]: 12.8 nM
TGI [38]: 34.2 nM
GI50 [39]: < 10 nM
TGI [39]: 16.5 nM
GI50 [40]: 17.5 nM
TGI [40]: 32.4 nM
GI50 [41]: 202 nM
TGI [41]: 348 nM
GI50 [42]: < 10 nM
TGI [42]: 18.4 nM
GI50 [43]: < 10 nM
TGI [43]: < 10 nM
GI50 [44]: 48.1 nM
TGI [44]: 166 nM
GI50 [45]: < 10 nM
TGI [45]: < 10 nM
GI50 [46]: < 10 nM
TGI [46]: < 10 nM
GI50 [47]: < 10 nM
TGI [47]: < 10 nM
GI50 [48]: 12.8 nM
TGI [48]: 25.9 nM
GI50 [49]: 21.4 nM
TGI [49]: 43.7 nM
GI50 [50]: < 10 nM
TGI [50]: 20.7 nM
GI50 [51]: 19 nM
TGI [51]: 34.4 nM
GI50 [52]: 14.4 nM
TGI [52]: 27.8 nM
GI50 [53]: < 10 nM
TGI [53]: 12.4 nM
GI50 [54]: 27.3 nM
TGI [54]: 85.3 nM
GI50 [55]: < 10 nM
TGI [55]: < 10 nM
GI50 [56]: 14.7 nM
TGI [56]: 28.6 nM
GI50 [57]: 17 nM
TGI [57]: 32.2 nM
GI50 [58]: 20.5 nM
TGI [58]: 42.1 nM
